Measurements: article PMC9120017, “Inhibition mechanism of the chloride channel TMEM16A by the pore blocker 1PBC” (Nature Communications, 2022)
Read-outs that look alike come from different tables or passages of the source.

Target: T1, wild-type mouse TMEM16A (Mus musculus, UniProt Q8BHY3)
T1 construct: expressed in transfected cells; host or cells: HEK293T
T1 sequence (Q8BHY3 1-960): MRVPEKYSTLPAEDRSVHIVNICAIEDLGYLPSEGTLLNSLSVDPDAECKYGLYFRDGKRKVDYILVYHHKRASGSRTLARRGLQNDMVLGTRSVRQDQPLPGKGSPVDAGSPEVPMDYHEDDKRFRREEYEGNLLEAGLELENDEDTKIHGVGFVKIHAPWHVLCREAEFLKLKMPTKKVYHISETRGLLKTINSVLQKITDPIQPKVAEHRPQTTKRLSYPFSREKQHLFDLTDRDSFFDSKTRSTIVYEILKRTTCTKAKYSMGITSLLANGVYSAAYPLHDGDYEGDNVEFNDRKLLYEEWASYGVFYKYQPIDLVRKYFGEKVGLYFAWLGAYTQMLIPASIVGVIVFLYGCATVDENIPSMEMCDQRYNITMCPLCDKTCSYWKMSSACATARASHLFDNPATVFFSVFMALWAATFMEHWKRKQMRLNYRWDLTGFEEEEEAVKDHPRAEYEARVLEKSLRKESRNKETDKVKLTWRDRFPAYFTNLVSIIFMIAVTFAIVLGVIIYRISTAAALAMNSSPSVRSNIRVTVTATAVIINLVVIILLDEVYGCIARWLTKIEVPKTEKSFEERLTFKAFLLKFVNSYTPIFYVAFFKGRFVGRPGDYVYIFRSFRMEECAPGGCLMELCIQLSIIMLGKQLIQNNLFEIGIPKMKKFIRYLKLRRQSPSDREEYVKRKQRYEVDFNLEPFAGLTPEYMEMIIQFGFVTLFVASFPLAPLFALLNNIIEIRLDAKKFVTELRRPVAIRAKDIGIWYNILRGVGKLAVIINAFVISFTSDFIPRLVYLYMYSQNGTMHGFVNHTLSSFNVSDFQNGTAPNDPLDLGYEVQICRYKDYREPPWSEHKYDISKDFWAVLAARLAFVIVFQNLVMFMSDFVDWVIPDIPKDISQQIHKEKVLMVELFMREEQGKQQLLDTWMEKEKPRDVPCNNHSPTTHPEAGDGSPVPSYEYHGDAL
Test: Inside-out patch recording of 1PBC block, wild-type TMEM16A
Type: cell-based
Settings: for remaining activity at 100 µM: read-out: I/Imax
Method: HEK293T cells (ATCC CRL-1573) were maintained in Dulbecco’s modified Eagle’s medium (DMEM; Sigma-Aldrich) supplemented with 10 U ml^−1 penicillin, 0.1 mg ml^−1 streptomycin (Sigma-Aldrich), 2 mM L-glutamine (Sigma-Aldrich), and 10% FBS (Sigma-Aldrich) in a humidified atmosphere containing 5% CO2 at 37 °C. HEK293S GnTI^− cells (ATCC CRL-3022) were maintained in HyClone HyCell TransFx-H medium (GE Healthcare) supplemented with 10 U ml^−1 penicillin, 0.1 mg ml^−1 streptomycin, 4 mM L-glutamine, 0.15% poloxamer 188 (Sigma-Aldrich), and 1% FBS in an atmosphere containing 5% CO2 at 185 rpm at 37 °C. The ac splice variant of mouse TMEM16A (UniProt ID: Q8BHY3), mouse TMEM16B (UniProt ID: Q8CFW1), or mouse TMEM16F (UniProt ID: Q6P9J9) bearing a 3C cleavage site, a Venus YFP, a Myc tag, and a Streptavidin-binding peptide (SBP) downstream of the open reading frame in a modified pcDNA3.1 vector (Invitrogen) were used as described previously[21],[31]. Mutations were introduced using a modified QuikChange method[58] and were verified by sequencing.
HEK293T cells were transfected with 3–4 μg DNA per 6 cm Petri dish using the calcium phosphate co-precipitation method and were used within 24–96 h after transfection. Recordings were performed on inside-out patches excised from HEK293T cells expressing the construct of interest. Patch pipettes were pulled from borosilicate glass capillaries (O.D. 1.5 mm, I.D. 0.86 mm, Sutter Instrument) and were fire-polished with a microforge (Narishige) before use. Pipette resistance was typically 3–8 MΩ when filled with the recording solutions detailed below. Seal resistance was typically 4 GΩ or higher. Voltage-clamp recordings were made using Axopatch 200B, Digidata 1550, and Clampex 10.7 (Molecular Devices). Analog signals were filtered with the in-built 4-pole Bessel filter at 10 kHz and were digitized at 20 kHz. Solution exchange was achieved using a gravity-fed system through a theta glass pipette mounted on an ultra-fast piezo-driven stepper (Siskiyou). […] All recordings were performed at 20 °C.
A symmetrical ionic condition was used throughout. Stock solution with Ca^2+-EGTA contained 150 mM NaCl, 5.99 mM Ca(OH)2, 5 mM EGTA, and 10 mM HEPES at pH 7.40. Stock solution with EGTA contained 150 mM NaCl, 5 mM EGTA, and 10 mM HEPES at pH 7.40. Free Ca^2+ concentrations were adjusted by mixing the stock solutions at the required ratios calculated using the WEBMAXC program (http://web.stanford.edu/~cpatton/webmaxcS.htm). Patch pipettes were filled with the stock solution with Ca^2+-EGTA, which has a free Ca^2+ concentration of 1 mM. 1PBC (ChemBridge) stock was reconstituted in anhydrous DMSO (Sigma-Aldrich) at 100 mM and stored at −20 °C. Working solutions with 1PBC were prepared by serial dilution. Unless otherwise stated, experiments were performed at a saturating Ca^2+ concentration as shown in Supplementary Table 1 and the primary data were corrected for current rundown as described previously[21],[25].
Concentration-response relations, obtained from the ratio of the I-V plots before and after the application of the blocker, were fitted to the Hill equation,1 I/Imax=1/1+IC50/[blocker]^h where I/Imax is the normalized current responses, IC50 defines the concentration at which inhibition is at its half-maximum, and h is the Hill coefficient.

[1] = 100 µM 1PBC, -100 mV, 2 µM Ca2+
[2] = 100 µM 1PBC, -120 mV, 2 µM Ca2+
[3] = 100 µM 1PBC, -140 mV, 2 µM Ca2+

N#Cc1c(C(F)(F)F)cc(O)n2c1nc1ccccc12 [1PBC]
I/Imax scaled to open probability (100 µM 1PBC, 2 µM Ca2+, 80 mV): 0.02162 | Steady-state current (normalized) (100 µM 1PBC, 20 mV, 2 µM Ca2+): 0.006925 | remaining activity at 100 µM (100 µM 1PBC, 20 mV, 2 µM Ca2+): 3.56% | Steady-state current (normalized) (100 µM 1PBC, 40 mV, 2 µM Ca2+): 0.0112 | remaining activity at 100 µM (100 µM 1PBC, 40 mV, 2 µM Ca2+): 2.97% | Steady-state current (normalized) (100 µM 1PBC, 60 mV, 2 µM Ca2+): 0.0148 | remaining activity at 100 µM (100 µM 1PBC, 60 mV, 2 µM Ca2+): 2.68% | Steady-state current (normalized) (100 µM 1PBC, 80 mV, 2 µM Ca2+): 0.01763 | remaining activity at 100 µM (100 µM 1PBC, 80 mV, 2 µM Ca2+): 2.49% | Steady-state current (normalized) (100 µM 1PBC, 100 mV, 2 µM Ca2+): 0.02038 | remaining activity at 100 µM (100 µM 1PBC, 100 mV, 2 µM Ca2+): 2.4% | Steady-state current (normalized) (100 µM 1PBC, 120 mV, 2 µM Ca2+): 0.024 | remaining activity at 100 µM (100 µM 1PBC, 120 mV, 2 µM Ca2+): 2.47% | Steady-state current (normalized) (100 µM 1PBC, 140 mV, 2 µM Ca2+): 0.02832 | remaining activity at 100 µM (100 µM 1PBC, 140 mV, 2 µM Ca2+): 2.6% | Steady-state current (normalized) (100 µM 1PBC, -20 mV, 2 µM Ca2+): -0.01026 | remaining activity at 100 µM (100 µM 1PBC, -20 mV, 2 µM Ca2+): 5.33% | Steady-state current (normalized) (100 µM 1PBC, -40 mV, 2 µM Ca2+): -0.02602 | remaining activity at 100 µM (100 µM 1PBC, -40 mV, 2 µM Ca2+): 6.7% | Steady-state current (normalized) (100 µM 1PBC, -60 mV, 2 µM Ca2+): -0.04778 | remaining activity at 100 µM (100 µM 1PBC, -60 mV, 2 µM Ca2+): 8.25% | Steady-state current (normalized) (100 µM 1PBC, -80 mV, 2 µM Ca2+): -0.07707 | remaining activity at 100 µM (100 µM 1PBC, -80 mV, 2 µM Ca2+): 10% | Steady-state current (normalized) [1]: -0.1118 | remaining activity at 100 µM [1]: 11.8% | Steady-state current (normalized) [2]: -0.1551 | remaining activity at 100 µM [2]: 13.9% | Steady-state current (normalized) [3]: -0.2042 | remaining activity at 100 µM [3]: 15.9% | IC50 (20 mV, 2 µM Ca2+): 3.42 µM | IC50 (40 mV, 2 µM Ca2+): 2.77 µM | IC50 (60 mV, 2 µM Ca2+): 2.32 µM | IC50 (80 mV, 2 µM Ca2+): 2.06 µM | IC50 (100 mV, 2 µM Ca2+): 2 µM | IC50 (120 mV, 2 µM Ca2+): 2.1 µM | IC50 (140 mV, 2 µM Ca2+): 2.41 µM | IC50 (-20 mV, 2 µM Ca2+): 5.63 µM | IC50 (-40 mV, 2 µM Ca2+): 7.34 µM | IC50 (-60 mV, 2 µM Ca2+): 9.2 µM | IC50 (-80 mV, 2 µM Ca2+): 11.6 µM | IC50 (-100 mV, 2 µM Ca2+): 14.1 µM | IC50 (-120 mV, 2 µM Ca2+): 17.2 µM | IC50 (-140 mV, 2 µM Ca2+): 19.9 µM | Selectivity for anion channels of the TMEM16 family over the scramblase TMEM16F (TMEM16A and TMEM16B blocked, TMEM16F current not): selective for anion channels of the TMEM16 family over the scramblase TMEM16F | Electrical distance of 1PBC block (functional experiments): 0.2-0.25 | Membrane permeability (neutral pH, implied from block from the extracellular side after intracellular application): freely membrane-permeable | IC50 (zero mV, saturating Ca2+ concentration (2 µM), applied from the intracellular side): ~4 µM
